What was measured:
Enterobacter aerogenes = test: Microbicidal evaluation in nutrient broth, lowest concentration completely preventing growth, Kull synergism calculation; assay type: cell-based; conditions: contact time 15 hours
Experimental: (§1) Nutrient broth (2.5 g/liter of deionized water) was prepared and dispensed in 5 ml amounts into test tubes and autoclaved for 20 minutes at 121° C. The biocides were added to the test tubes in the desired concentrations, and then 100 microliters of a 24-hour grown suspension of Pseudomonas aeruginosa or Enterobacter aerogenes cells were added to the respective test tubes to give a final count of approximately 10^6 cfu/ml and incubated at 37° C. at the indicated contact times.
(§2) End points for the various mixtures were then compared with the end points for the pure active ingredients alone in concomitantly prepared flasks or test tubes.
(§3) which produced an end point.
(§4) Qb=Lowest concentration of compound B in parts per million, acting alone,
(§5) QA=Lowest concentration of compound A in parts per million, in the mixture,
(§6) QB=Lowest concentration of compound B in parts per million, in the mixture,
(§7) When the sum of QA/Qa and QB/Qb is greater than one, antagonism is indicated. When the sum is equal to one, additivity is indicated. When the sum is less than one, synergism exists.
Contact time was 15 hours. The MCA was obtained by combinations of ammonium sulfate in the form of Oxamine 6150 or Busan 1215 (all from Buckman Laboratories, Memphis, Tenn.) and the oxidant, Bulab 6004 (from Buckman Laboratories). The peracetic acid was from Sigma-Aldrich (32 wt. % in dilute acetic acid) which was diluted in deionized water to desired concentration range prior to adding it to the test systems.

Pseudomonas aeruginosa = test: as above; assay type: cell-based; conditions: contact time 24 hours, 37° C., approx. 10^6 cfu/ml, complete prevention of growth
Experimental: as §1, §2, §3, §4, §5, §6, §7
Contact time was 24 hours. The MCA and peracetic acid were obtained in the same manner as Example 1.

[1] = 37° C., approx. 10^6 cfu/ml, complete prevention of growth

SMILES | QB/Qb (Enterobacter aerogenes) | Qb, lowest concentration of compound B acting alone which produced an end point (Enterobacter aerogenes; [1]) [ppm] | Qb, lowest concentration of compound B acting alone which produced an end point (Pseudomonas aeruginosa) [ppm] | Qa, concentration of compound A acting alone which produced an end point (Enterobacter aerogenes; [1]) [ppm] | Qa, concentration of compound A acting alone which produced an end point (Pseudomonas aeruginosa) [ppm]
NCl [monochloramine] | 0.5 | 100 | 50 |  | 
CC(=O)OO [peracetic acid] |  |  |  | 25.0 | 10
